Reference: PubChem BioAssay (NCI)
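Protocol summary: plate cells (96-well), add compound at 5 concentrations, incubate 48 h, interpolate endpoints linearly. TGI: total growth inhibition.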

Key:
Experiment in all cases: growth of human tumour cells (NCI), 48 h
786-0 renal = system: 786-0 renal
A498 renal = system: A498 renal
A549 NSCLC = system: A549 NSCLC
ACHN renal = system: ACHN renal
BT-549 breast = system: BT-549 breast
CAKI-1 renal = system: CAKI-1 renal
CCRF-CEM leukemia = system: CCRF-CEM leukemia
DU-145 prostate = system: DU-145 prostate
HCC-2998 colon = system: HCC-2998 colon
HCT-116 colon = system: HCT-116 colon
HCT-15 colon = system: HCT-15 colon
HL-60(TB) leukemia = system: HL-60(TB) leukemia
HOP-62 NSCLC = system: HOP-62 NSCLC
HT29 colon = system: HT29 colon
IGROV1 ovarian = system: IGROV1 ovarian
K-562 leukemia = system: K-562 leukemia
LOX IMVI melanoma = system: LOX IMVI melanoma
M14 melanoma = system: M14 melanoma
MALME-3M melanoma = system: MALME-3M melanoma
MCF7 breast = system: MCF7 breast
MDA-MB-231 breast = system: MDA-MB-231 breast
MDA-MB-435 = system: MDA-MB-435
MDA-N = system: MDA-N
MOLT-4 leukemia = system: MOLT-4 leukemia
NCI-H226 lung = system: NCI-H226 lung
NCI-H23 lung = system: NCI-H23 lung
NCI-H460 lung = system: NCI-H460 lung
NCI-H522 lung = system: NCI-H522 lung
OVCAR-3 ovarian = system: OVCAR-3 ovarian
OVCAR-4 ovarian = system: OVCAR-4 ovarian
OVCAR-5 ovarian = system: OVCAR-5 ovarian
OVCAR-8 ovarian = system: OVCAR-8 ovarian
PC-3 prostate = system: PC-3 prostate
RPMI-8226 leukemia = system: RPMI-8226 leukemia
SF-268 CNS = system: SF-268 CNS
SK-MEL-2 melanoma = system: SK-MEL-2 melanoma
SK-MEL-28 melanoma = system: SK-MEL-28 melanoma
SK-MEL-5 melanoma = system: SK-MEL-5 melanoma
SN12C renal = system: SN12C renal
SNB-19 CNS = system: SNB-19 CNS
SNB-75 CNS = system: SNB-75 CNS
SR leukemia = system: SR leukemia
SW-620 colon = system: SW-620 colon
T-47D breast = system: T-47D breast
TK-10 renal = system: TK-10 renal
U251 CNS = system: U251 CNS
UACC-257 melanoma = system: UACC-257 melanoma
UACC-62 melanoma = system: UACC-62 melanoma
UO-31 renal = system: UO-31 renal
COLO 205 colon = system: COLO 205 colon
EKVX NSCLC = system: EKVX NSCLC
HOP-92 NSCLC = system: HOP-92 NSCLC
KM12 colon = system: KM12 colon
SF-295 CNS = system: SF-295 CNS
SF-539 CNS = system: SF-539 CNS
SK-OV-3 ovarian = system: SK-OV-3 ovarian
NCI/ADR-RES ovarian = system: NCI/ADR-RES ovarian
RXF 393 renal = system: RXF 393 renal

## Cc1ccc(N=NC(=O)NNc2ccc(C)c([N+](=O)[O-])c2)cc1[N+](=O)[O-]
786-0 renal
  TGI: 90.4 µM
A498 renal
  TGI: 63.2 µM
A549 NSCLC
  TGI: > 100 µM
ACHN renal
  TGI: 90.3 µM
BT-549 breast
  TGI: > 100 µM
CAKI-1 renal
  TGI: > 100 µM
CCRF-CEM leukemia
  TGI: > 100 µM
DU-145 prostate
  TGI: > 100 µM
HCC-2998 colon
  TGI: 33 µM
HCT-116 colon
  TGI: > 100 µM
HCT-15 colon
  TGI: > 100 µM
HL-60(TB) leukemia
  TGI: 50.4 µM
HOP-62 NSCLC
  TGI: 63.5 µM
HT29 colon
  TGI: > 100 µM
IGROV1 ovarian
  TGI: > 100 µM
K-562 leukemia
  TGI: 50.3 µM
LOX IMVI melanoma
  TGI: 36.7 µM
M14 melanoma
  TGI: > 100 µM
MALME-3M melanoma
  TGI: 83.3 µM
MCF7 breast
  TGI: 69.5 µM
MDA-MB-231 breast
  TGI: > 100 µM
MDA-MB-435
  TGI: > 100 µM
MDA-N
  TGI: > 100 µM
MOLT-4 leukemia
  TGI: 65.5 µM
NCI-H226 lung
  TGI: > 100 µM
NCI-H23 lung
  TGI: > 100 µM
NCI-H460 lung
  TGI: 77 µM
NCI-H522 lung
  TGI: 36.8 µM
OVCAR-3 ovarian
  TGI: 57.4 µM
OVCAR-4 ovarian
  TGI: 82.6 µM
OVCAR-5 ovarian
  TGI: > 100 µM
OVCAR-8 ovarian
  TGI: > 100 µM
PC-3 prostate
  TGI: > 100 µM
RPMI-8226 leukemia
  TGI: 85.8 µM
SF-268 CNS
  TGI: > 100 µM
SK-MEL-2 melanoma
  TGI: 30.3 µM
SK-MEL-28 melanoma
  TGI: 77.4 µM
SK-MEL-5 melanoma
  TGI: 77.7 µM
SN12C renal
  TGI: > 100 µM
SNB-19 CNS
  TGI: > 100 µM
SNB-75 CNS
  TGI: 95.9 µM
SR leukemia
  TGI: > 100 µM
SW-620 colon
  TGI: > 100 µM
T-47D breast
  TGI: > 100 µM
TK-10 renal
  TGI: > 100 µM
U251 CNS
  TGI: > 100 µM
UACC-257 melanoma
  TGI: 88.3 µM
UACC-62 melanoma
  TGI: 50.2 µM
UO-31 renal
  TGI: 82.8 µM

## CC(=O)NC(C)(C)C1CC=C(C)/C(=N\O)C1 (configuration not stated)
786-0 renal
  TGI: > 100 µM
A549 NSCLC
  TGI: > 100 µM
BT-549 breast
  TGI: > 100 µM
CCRF-CEM leukemia
  TGI: > 100 µM
COLO 205 colon
  TGI: > 100 µM
DU-145 prostate
  TGI: > 100 µM
EKVX NSCLC
  TGI: > 100 µM
HCC-2998 colon
  TGI: > 100 µM
HCT-116 colon
  TGI: > 100 µM
HCT-15 colon
  TGI: > 100 µM
HL-60(TB) leukemia
  TGI: > 100 µM
HOP-62 NSCLC
  TGI: > 100 µM
HOP-92 NSCLC
  TGI: > 100 µM
HT29 colon
  TGI: > 100 µM
IGROV1 ovarian
  TGI: > 100 µM
K-562 leukemia
  TGI: > 100 µM
KM12 colon
  TGI: > 100 µM
LOX IMVI melanoma
  TGI: > 100 µM
M14 melanoma
  TGI: > 100 µM
MCF7 breast
  TGI: > 100 µM
MDA-MB-231 breast
  TGI: > 100 µM
MDA-MB-435
  TGI: > 100 µM
MDA-N
  TGI: > 100 µM
MOLT-4 leukemia
  TGI: > 100 µM
NCI-H23 lung
  TGI: > 100 µM
NCI-H460 lung
  TGI: > 100 µM
NCI-H522 lung
  TGI: > 100 µM
OVCAR-3 ovarian
  TGI: > 100 µM
OVCAR-4 ovarian
  TGI: > 100 µM
OVCAR-5 ovarian
  TGI: > 100 µM
OVCAR-8 ovarian
  TGI: > 100 µM
PC-3 prostate
  TGI: > 100 µM
SF-268 CNS
  TGI: > 100 µM
SF-295 CNS
  TGI: > 100 µM
SF-539 CNS
  TGI: > 100 µM
SK-MEL-28 melanoma
  TGI: > 100 µM
SK-MEL-5 melanoma
  TGI: > 100 µM
SK-OV-3 ovarian
  TGI: > 100 µM
SN12C renal
  TGI: > 100 µM
SNB-19 CNS
  TGI: > 100 µM
SNB-75 CNS
  TGI: > 100 µM
SR leukemia
  TGI: > 100 µM
SW-620 colon
  TGI: > 100 µM
T-47D breast
  TGI: > 100 µM
TK-10 renal
  TGI: > 100 µM
U251 CNS
  TGI: > 100 µM
UACC-257 melanoma
  TGI: > 100 µM
UACC-62 melanoma
  TGI: > 100 µM
UO-31 renal
  TGI: > 100 µM

## O=C(COc1ccc(OCC(=O)N2C(=O)CN(c3ccc(Cl)cc3)C2=S)cc1)N1C(=O)CN(c2ccc(Cl)cc2)C1=S
786-0 renal
  TGI: 58.6 µM
A498 renal
  TGI: 66.8 µM
A549 NSCLC
  TGI: 78 µM
ACHN renal
  TGI: > 100 µM
BT-549 breast
  TGI: > 100 µM
CAKI-1 renal
  TGI: 40.6 µM
COLO 205 colon
  TGI: 64.1 µM
DU-145 prostate
  TGI: > 100 µM
EKVX NSCLC
  TGI: > 100 µM
HCC-2998 colon
  TGI: 51.4 µM
HCT-116 colon
  TGI: 32.6 µM
HCT-15 colon
  TGI: > 100 µM
HOP-92 NSCLC
  TGI: 88 µM
HT29 colon
  TGI: 92.2 µM
IGROV1 ovarian
  TGI: > 100 µM
K-562 leukemia
  TGI: > 100 µM
KM12 colon
  TGI: 43.4 µM
M14 melanoma
  TGI: > 100 µM
MALME-3M melanoma
  TGI: > 100 µM
MCF7 breast
  TGI: > 100 µM
MDA-MB-231 breast
  TGI: 57 µM
MDA-MB-435
  TGI: > 100 µM
MDA-N
  TGI: 92.5 µM
MOLT-4 leukemia
  TGI: > 100 µM
NCI-H226 lung
  TGI: 90.1 µM
NCI-H23 lung
  TGI: > 100 µM
NCI-H460 lung
  TGI: 66.1 µM
NCI-H522 lung
  TGI: 69.2 µM
NCI/ADR-RES ovarian
  TGI: > 100 µM
OVCAR-4 ovarian
  TGI: > 100 µM
OVCAR-5 ovarian
  TGI: > 100 µM
PC-3 prostate
  TGI: > 100 µM
RPMI-8226 leukemia
  TGI: 75.9 µM
RXF 393 renal
  TGI: 67.5 µM
SF-268 CNS
  TGI: 97.6 µM
SF-295 CNS
  TGI: > 100 µM
SK-MEL-2 melanoma
  TGI: 36.6 µM
SK-MEL-28 melanoma
  TGI: > 100 µM
SK-MEL-5 melanoma
  TGI: 34.5 µM
SK-OV-3 ovarian
  TGI: 90.3 µM
SN12C renal
  TGI: 97.9 µM
SNB-19 CNS
  TGI: > 100 µM
SNB-75 CNS
  TGI: > 100 µM
SW-620 colon
  TGI: > 100 µM
TK-10 renal
  TGI: 91.5 µM
U251 CNS
  TGI: 83.6 µM
UACC-257 melanoma
  TGI: 93.2 µM
UACC-62 melanoma
  TGI: 51.5 µM
UO-31 renal
  TGI: > 100 µM
